Patent EP0442958B1, “PHARMACEUTICAL COMPOSITION FOR OPHTHALMIC USE COMPRISING A WATER SOLUBLE ACID ADDITION SALT OF IBOPAMINE” (ZAMBON GROUP S.p.A., priority 1988, dated 1990)
Counter-ions that a name gives are not always drawn.

Columns and labels:
[1] = Stability of aqueous ibopamine solutions (ibopamine titer); type: physicochemical; details: aqueous solutions buffered at pH 4.5, room temperature
[2] = well known, WO 86/03970; cited from earlier work

Row | period for which ibopamine titer remains substantially unchanged [1] [days] | SMILES | mydriatic activity [2]
1 | 20 to 25 | CNCCc1ccc(OC(=O)C(C)C)c(OC(=O)C(C)C)c1 [ibopamine hydrochloride, Ibopamine hydrochloride] | –
2 | – | CNCCc1ccc(OC(=O)C(C)C)c(OC(=O)C(C)C)c1 [ibopamine, epinine 3,4-0-diisobutyrate] | endowed with mydriatic activity
